Assay results: PMC6712002, “Comprehensive in vitro characterization of PD-L1 small molecule inhibitors” (Scientific Reports, 2019)
Entries after “also recorded” stand apart in the source; their conditions may differ. Bridge positions count the residues as written; N and C are the ends. Square brackets hold non-standard residues; d marks the D form. Peptide text beside a SMILES is read from it. NMeNle = CCCC[C@H](NC)C(=O)O; NMeA = CN[C@@H](C)C(=O)O

Tests used:
HepG2 cells = assay: HepG2 cell viability, CCK-8 assay; format: cell-based, human; conditions: HepG2, 24 h; for concentration significantly reducing cell viability / concentration without significant effect on cell viability: CCK-8; for effect on cell viability: various concentrations tested
Experimental: We also evaluated the acute cytotoxicity of the BMS and Aurigene compounds by testing the effects of compound treatment on the viability of HepG2 cell line. […] The purpose of using HepG2 cells, thus, would allow for evaluation of the parent molecules and potential metabolites for cytotoxicity. The cells were treated with the compounds for 24 h and then the cell viability was assessed by the CCK-8 assay (Fig. 7C).
The acute cytotoxicity of the test compounds was also evaluated by administering the test compounds to human hepatoma (HepG2) cells and assessing their viability (metabolic viability) using the CCK-8 assay (based on WST-8). HepG2 cells are commonly used in the early screening stages for new chemical entities, and the CCK-8 assay has been well established as a sensitive and reliable indicator for cellular metabolic activity (viability) for this purpose. HepG2 cells were obtained from ATCC (HB-8065; Manassas, VA) and maintained in DMEM culture medium in a water-jacketed incubator (5% CO2, 37 °C). […] At this time point, cells were treated with WST-8 based on the manufacturer’s protocol (CCK-8 kit, Dojindo Molecular Technologies, Rockville, MD). Cell viability calculations were also carried out according to the manufacturer’s protocol, which included accounting for potential interference from test compounds, and comparisons to appropriate controls. GraphPad Prism was used for data analysis and graphical representation.

CHO cells = assay: CHO cell viability, CellTiter-Glo; conditions: 24 h; for concentration significantly reducing cell viability: vs DMSO control
Jurkat cells = assay: Jurkat cell viability, CellTiter-Glo; format: cell-based; conditions: 24 h; for concentration significantly decreasing cell viability: vs DMSO control; for effect on cell viability: concentrations tested
[1] = tested on: PD-1/NFAT reporter Jurkat cells co-cultured with TCR activator/PD-L1-CHO cells; assay: Bioluminescent PD-1/PD-L1 cell-based assay (NFAT luciferase reporter)
Fc-B7-1 = molecular target: T1, Fc-B7-1 (Homo sapiens, UniProt P33681); assay: SPR binding to captured Fc-B7-1 (specificity)
T1 sequence (P33681 35-242 limits assumed): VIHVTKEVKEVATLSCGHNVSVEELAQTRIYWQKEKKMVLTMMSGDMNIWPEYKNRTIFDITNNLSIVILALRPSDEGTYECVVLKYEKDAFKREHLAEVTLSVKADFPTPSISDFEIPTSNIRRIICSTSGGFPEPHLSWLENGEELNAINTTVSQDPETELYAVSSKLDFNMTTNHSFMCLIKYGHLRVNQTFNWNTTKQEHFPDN

PD-1/PD-L1 = conditions: read-out: IC50 (HTRF); original disclosure; cited from earlier work
[2] = tested on: peripheral blood mononuclear cells (PBMCs); format: cell-based, human
[3] = tested on: PD-1 negative Jurkat T cells; assay: Counter-screen NFAT luciferase reporter in PD-1 negative Jurkat T cells; format: cell-based; conditions: 24.5 μM and 49 μM
[4] = tested on: peripheral blood mononuclear cells (PBMCs); assay: IFN-γ production by SEB-stimulated PBMCs (ELISA); format: cell-based, human
PD-1/PD-L1 interface = PD-1/PD-L1 interface (Homo sapiens, UniProt Q9NZQ7); assay: Binding to the PD-1/PD-L1 interface (method not given)
PD-1/PD-L1 interface, sequence (Q9NZQ7 19-290): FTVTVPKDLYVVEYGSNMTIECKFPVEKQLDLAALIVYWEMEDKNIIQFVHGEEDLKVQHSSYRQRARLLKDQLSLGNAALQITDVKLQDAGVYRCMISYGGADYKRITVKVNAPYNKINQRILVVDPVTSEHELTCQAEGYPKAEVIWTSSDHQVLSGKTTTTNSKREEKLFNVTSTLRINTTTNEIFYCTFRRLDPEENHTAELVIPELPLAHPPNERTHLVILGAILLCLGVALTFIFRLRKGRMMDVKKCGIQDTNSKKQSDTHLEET

PD-1/PD-L1 binding [5] = molecular target: T2, PD-1/PD-L1 binding (Homo sapiens, UniProt Q9NZQ7); assay: PD-1/PD-L1 ELISA competition assay (PD-L1 coated, biotinylated PD-1); format: biochemical; parameters: purchased R&D Systems (Fc-PD-L1); Acro Biosystems (biotinylated PD-1)
Target sequence in this assay (Q9NZQ7 19-239 limits assumed): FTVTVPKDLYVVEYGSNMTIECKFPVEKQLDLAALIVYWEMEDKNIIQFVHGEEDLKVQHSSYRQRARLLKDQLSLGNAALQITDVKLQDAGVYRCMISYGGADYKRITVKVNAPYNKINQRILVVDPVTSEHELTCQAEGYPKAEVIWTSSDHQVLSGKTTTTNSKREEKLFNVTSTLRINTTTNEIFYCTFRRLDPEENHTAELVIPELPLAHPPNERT

PD-L1 [6] = molecular target: T3, PD-L1 (Homo sapiens, UniProt Q9NZQ7); assay: 1D NMR STD and WaterLOGSY binding; conditions: 12 µM PD-L1, 200 µM compound
T3 construct: human PD-L1 (residues 18–134) was cloned into pET21b vector; made in house
T3 sequence (Q9NZQ7 18-134): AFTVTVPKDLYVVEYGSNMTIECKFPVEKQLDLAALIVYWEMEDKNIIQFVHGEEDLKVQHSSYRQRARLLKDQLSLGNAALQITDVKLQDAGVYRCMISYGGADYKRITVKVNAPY
Experimental: In addition, we also employed 1D NMR-based methods, saturation transfer difference (STD) and WaterLOGSY techniques, to unambiguously rule-out the binding of Aurigene-1 to PD-L1 protein. STD and WaterLOGSY are popular ligand-based approaches to detect the binding of protein-protein inhibitors.
NMR samples contained 12 µM of protein, 200 µM of compound in 1x PBS (phosphate-buffered saline buffer, pH 7.5) and 0.25 mM 2,2-dimethyl-2-silapentane-5-sulfonate-d6 sodium salt (DSS-d6) as an NMR internal reference in 95/5% H2O/D2O or 100% D2O. […] NMR spectroscopy was performed at the Nanuc NMR Centre on a 2.2 K pumped-800 MHz Oxford magnet updated to a Bruker Neo-Advance IV console equipped with a 5 mm cryoprobe and SampleJet robotics.
Fig. S3: STD and WaterLOGSY experiments of PD-L1 binding to Aurigene-1. Blue - 1D spectrum of Aurigene-1, Red and Green -STD and WaterLOGSY spectra respectively of 12 μM of PD-L1 with 200 μM of Aurigene-1

PD-L1 [7] = molecular target: T3, PD-L1; assay: Differential scanning fluorimetry (DSF) of PD-L1; format: binding; conditions: PD-L1 10 µM, compound 50 µM
mouse splenocytes = tested on: mouse splenocytes; parameters: method as in earlier work; conditions: CFSE proliferation assay with recombinant PD-L1; cited from earlier work
Fc-PD-L1 = Fc-PD-L1 (Homo sapiens, UniProt Q9NZQ7); assay: SPR binding to captured Fc-PD-L1; conditions: Fc-PD-L1 captured on Protein A chip, 25 °C
Fc-PD-L1, sequence (Q9NZQ7 19-238 limits assumed): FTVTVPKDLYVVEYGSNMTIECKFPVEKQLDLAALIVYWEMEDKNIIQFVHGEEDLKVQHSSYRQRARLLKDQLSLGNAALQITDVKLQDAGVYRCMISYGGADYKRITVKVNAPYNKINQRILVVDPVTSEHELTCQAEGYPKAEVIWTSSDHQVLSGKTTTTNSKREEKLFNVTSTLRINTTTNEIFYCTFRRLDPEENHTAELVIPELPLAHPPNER

PD-1/PD-L1 binding [8] = molecular target: T2, PD-1/PD-L1 binding; assay: PD-1/PD-L1 ELISA competition assay, reverse configuration (PD-1 coated, biotinylated PD-L1); format: biochemical; conditions: biotin tagged PD-L1
Target sequence in this assay (Q9NZQ7 19-238 limits assumed): as above

human PD-1 protein = human PD-1 protein (Homo sapiens, UniProt Q15116); assay: DSF of PD-1; format: binding
human PD-1 protein, sequence (Q15116 25-288): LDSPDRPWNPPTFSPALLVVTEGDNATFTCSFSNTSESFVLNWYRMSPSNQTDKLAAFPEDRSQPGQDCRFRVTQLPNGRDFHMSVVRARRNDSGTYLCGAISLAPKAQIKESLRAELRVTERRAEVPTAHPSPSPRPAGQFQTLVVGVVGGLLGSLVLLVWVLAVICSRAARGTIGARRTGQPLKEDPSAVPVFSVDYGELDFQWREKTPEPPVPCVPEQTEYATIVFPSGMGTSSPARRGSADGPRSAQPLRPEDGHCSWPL

PD-L1 [9] = molecular target: T3, PD-L1; assay: Microscale thermophoresis (MST) binding to labeled PD-L1; conditions: labeled PD-L1 60 nM

Which “concentration significantly reducing cell viability” value (HepG2 cells) does the source give for `COc1cc(OCc2cccc(-c3ccccc3)c2C#N)cc(OC)c1CNCCO` [BMS-142] here?
Its value is at least 48 µM.

What about the “concentration without any effect on cell viability” value (CHO cells) of the same compound?
The value was “up to 2.4 µM”.

And the “concentration significantly reducing cell viability” value (CHO cells)?
Its value is at least 12 µM.

What about the “concentration without any effect on cell viability” value (Jurkat cells) of the same compound?
The value was “up to 2.4 µM”.

And the “concentration significantly decreasing cell viability” value (Jurkat cells)?
Its value is at least 12 µM.

What about the “NFAT activity vs cells only” value ([1]; 12.3 μM, 2.4 μM and […]) of the same compound?
Its value is “no change in NFAT activity”.

And the “NFAT activity (interaction with PD-1/PD-L1)” value ([1]; 24 µM and 48 µM)?
Its value is “sometimes interacted weakly with PD-1/PD-L1, although this was not statistically significant”.

What about the “binding with captured Fc-B7-1” value (Fc-B7-1) of the same compound?
Its value is “None of the BMS inhibitors (BMSpep-57, BMS-103 and BMS-142) showed binding”.

And the IC50 (PD-1/PD-L1)?
Its IC50 is 6 to 100 nM.

What does the source list for `COc1cc(OCc2cccc(-c3ccccc3)c2C)cc(OC)c1CNCCO` [BMS-103]?
concentration significantly reducing cell viability (HepG2 cells): ≥ 12.2 µM; concentration without significant effect on cell viability (HepG2 cells): up to 2.4 µM; concentration significantly reducing cell viability (CHO cells): ≥ 12.2 µM; concentration completely abolishing cell viability (Jurkat cells): ≥ 2.4 µM; concentration significantly decreasing cell viability (Jurkat cells): 0.4 µM; binding with captured Fc-B7-1 (Fc-B7-1): None of the BMS inhibitors (BMSpep-57, BMS-103 and BMS-142) showed binding; IL-2 production vs positive control [2]: significantly lower levels of IL-2 than the positive control; luminescence of PD-1 negative Jurkat cells [3]: substantially low

For `Cc1ccc2ccccc2c1CN1CCN(c2c([N+](=O)[O-])c(=O)n(C)c3ccccc23)CC1` [Compound A], which “fold IFN-γ production vs untreated cells” value [4] is on record?
Its value is “approximately 1.2 fold”.

And the “concentration without significant effect on cell viability” value (HepG2 cells)?
The value was at most 90 µM.

And the “binding to the PD-1/PD-L1 interface” value (PD-1/PD-L1 interface)?
Its value is “did not bind to the PD-1/PD-L1 interface”.

With `CCCC[C@H]1C(=O)N(C)[C@@H](CCCC)C(=O)N[C@@H](CCCNC(=N)N)C(=O)N[C@H](C(=O)NCC(N)=O)CSCC(=O)N[C@@H](Cc2ccccc2)C(=O)N(C)[C@@H](C)C(=O)N[C@@H](CC(N)=O)C(=O)N2CCC[C@H]2C(=O)N[C@@H](Cc2c[nH]cn2)C(=O)N[C@@H](CC(C)C)C(=O)N[C@@H](CO)C(=O)N[C@@H](Cc2c[nH]c3ccccc23)C(=O)N[C@@H](CO)C(=O)N[C@@H](Cc2c[nH]c3ccccc23)C(=O)N1C` [BMSpep-57] ({CH2CO}-F[NMeA]NPHLSWSW[NMeNle][NMeNle]RCG-NH2; thioether N-14; N-terminus and C-terminus assumed) as the compound, how does the inhibition at 0.3 µM (PD-1/PD-L1 binding [5]; at 300 nM) read?
Its inhibition at 0.3 µM is 98.1%.

Which results are given for `CCCC[C@H]1C(=O)N(C)[C@@H](CCCC)C(=O)N[C@@H](CCCNC(=N)N)C(=O)N[C@H](C(=O)NCC(N)=O)CSCC(=O)N[C@@H](Cc2ccccc2)C(=O)N(C)[C@@H](C)C(=O)N[C@@H](CC(N)=O)C(=O)N2CCC[C@H]2C(=O)N[C@@H](Cc2cnc[nH]2)C(=O)N[C@@H](CC(C)C)C(=O)N[C@@H](CO)C(=O)N[C@@H](Cc2c[nH]c3ccccc23)C(=O)N[C@@H](CO)C(=O)N[C@@H](Cc2c[nH]c3ccccc23)C(=O)N1C` [BMSpep-57] ({CH2CO}-F[NMeA]NPHLSWSW[NMeNle][NMeNle]RCG-NH2; thioether N-14)?
effect on cell viability (HepG2 cells): did not show any effects on the cell viability; effect on cell viability (Jurkat cells): did not show any effect on the cell viability

What does the source list for `CC(O)[C@H](NC(=O)N[C@@H](CC(N)=O)c1nc([C@@H](N)CO)no1)C(=O)O` (some centres unmarked) [Aurigene-1]?
binding to PD-L1 (STD, WaterLOGSY NMR) (PD-L1 [6]): does not bind to PD-L1 protein; effect on cell viability (HepG2 cells): did not show any effects on the cell viability; shift of Tm of PD-L1 (PD-L1 [7]): 0.7 ± 0.1 °C; rescue of mouse splenocyte proliferation (mouse splenocytes): 97%; effect on cell viability (Jurkat cells): did not show any effect on the cell viability; Rmax (maximum binding response) (Fc-PD-L1): 0.78 ± 0.36 RU; NFAT activity ([1]; 55.5 μM, 27.8 μM, 13.9 μM, 2.8 μM and 1.4 μM): none of these concentrations facilitated NFAT activity; inhibition of PD-1/PD-L1 binding, reverse configuration (PD-1/PD-L1 binding [8]): did not show inhibition of PD-1/PD-L1 binding; effect on IL-2 production [2]: cannot enhance IL-2 production; thermal stability of PD-1 protein (human PD-1 protein): did not increase the thermal stability of PD-1 protein; also recorded: did not induce thermal stability to the human PD-1 protein; binding to PD-L1 (MST fluorescence response) (PD-L1 [9]): no change in fluorescence; inhibition of PD-1/PD-L1 binding (PD-1/PD-L1 binding [5]; 7.8 µM to 500 µM): did not inhibit the PD-1/PD-L1 binding
